In PubChem BioAssay (NCI):
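The compound was tested at five concentrations on cells cultured in 96-well plates, with a 48-hour exposure period. TGI marks complete inhibition of growth.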 Where a SMILES comes first, the peptide text is derived from it. [ ]: non-standard residue; d: D form. The star is where a group is joined. Benzoyl(4-OMe) = COc1ccc(C(=O)*)cc1; 2Thi = N[CH](Cc1cccs1)C(=O)O

Tests used:
Experiment in all cases: NCI-60 cell line screen, 48 h
T-47D breast = test system: T-47D breast
RXF 393 renal = test system: RXF 393 renal
K-562 leukemia = test system: K-562 leukemia
NCI-H23 lung = test system: NCI-H23 lung
OVCAR-8 ovarian = test system: OVCAR-8 ovarian
SNB-75 CNS = test system: SNB-75 CNS
U251 CNS = test system: U251 CNS
HT29 colon = test system: HT29 colon
UACC-257 melanoma = test system: UACC-257 melanoma
EKVX NSCLC = test system: EKVX NSCLC
SK-MEL-2 melanoma = test system: SK-MEL-2 melanoma
RPMI-8226 leukemia = test system: RPMI-8226 leukemia
HS 578T breast = test system: HS 578T breast
HOP-92 NSCLC = test system: HOP-92 NSCLC
PC-3 prostate = test system: PC-3 prostate
HOP-62 NSCLC = test system: HOP-62 NSCLC
SN12C renal = test system: SN12C renal
ACHN renal = test system: ACHN renal
HCT-15 colon = test system: HCT-15 colon
M14 melanoma = test system: M14 melanoma
SF-268 CNS = test system: SF-268 CNS
IGROV1 ovarian = test system: IGROV1 ovarian
KM12 colon = test system: KM12 colon
NCI-H460 lung = test system: NCI-H460 lung
UACC-62 melanoma = test system: UACC-62 melanoma
A549 NSCLC = test system: A549 NSCLC
TK-10 renal = test system: TK-10 renal
NCI-H522 lung = test system: NCI-H522 lung
MDA-MB-435 = test system: MDA-MB-435
HCC-2998 colon = test system: HCC-2998 colon
SK-MEL-28 melanoma = test system: SK-MEL-28 melanoma
SK-MEL-5 melanoma = test system: SK-MEL-5 melanoma
MOLT-4 leukemia = test system: MOLT-4 leukemia
SK-OV-3 ovarian = test system: SK-OV-3 ovarian
SW-620 colon = test system: SW-620 colon
LOX IMVI melanoma = test system: LOX IMVI melanoma
HCT-116 colon = test system: HCT-116 colon
SF-295 CNS = test system: SF-295 CNS
OVCAR-3 ovarian = test system: OVCAR-3 ovarian
UO-31 renal = test system: UO-31 renal
MDA-MB-231 breast = test system: MDA-MB-231 breast
786-0 renal = test system: 786-0 renal
MCF7 breast = test system: MCF7 breast
SR leukemia = test system: SR leukemia
CCRF-CEM leukemia = test system: CCRF-CEM leukemia
MALME-3M melanoma = test system: MALME-3M melanoma
OVCAR-4 ovarian = test system: OVCAR-4 ovarian
SF-539 CNS = test system: SF-539 CNS
HL-60(TB) leukemia = test system: HL-60(TB) leukemia
NCI-H226 lung = test system: NCI-H226 lung
NCI/ADR-RES ovarian = test system: NCI/ADR-RES ovarian
CAKI-1 renal = test system: CAKI-1 renal
COLO 205 colon = test system: COLO 205 colon
A498 renal = test system: A498 renal
OVCAR-5 ovarian = test system: OVCAR-5 ovarian
DU-145 prostate = test system: DU-145 prostate
SNB-19 CNS = test system: SNB-19 CNS
BT-549 breast = test system: BT-549 breast

Question: Which TGI (T-47D breast) does the source give for `CC(=O)c1sc2c(c1OC(=O)c1ccc(Cl)cc1)c(=O)n(-c1ccccc1)c(=S)n2-c1ccccc1` here?
Answer: > 69.4 µM

Question: What about the TGI (RXF 393 renal) of the same molecule?
Answer: 5.91 µM

Question: And the TGI (K-562 leukemia)?
Answer: 38.4 µM

Question: What about the TGI (NCI-H23 lung) of the same molecule?
Answer: > 68.6 µM

Question: And the TGI (OVCAR-8 ovarian)?
Answer: 15.1 µM

Question: What about the TGI (SNB-75 CNS) of the same molecule?
Answer: 23.3 µM

Question: And the TGI (U251 CNS)?
Answer: 15 µM

Question: What about the TGI (HT29 colon) of the same molecule?
Answer: 8.95 µM

Question: What about the TGI (UACC-257 melanoma) of the same molecule?
Answer: 38.4 µM

Question: And the TGI (EKVX NSCLC)?
Answer: 77.8 µM

Question: What about the TGI (SK-MEL-2 melanoma) of the same molecule?
Answer: 3.7 µM

Question: And the TGI (RPMI-8226 leukemia)?
Answer: 8.56 µM

Question: And the TGI (HS 578T breast)?
Answer: 9.72 µM

Question: What about the TGI (HOP-92 NSCLC) of the same molecule?
Answer: 15.8 µM

Question: What about the TGI (PC-3 prostate) of the same molecule?
Answer: > 100 µM

Question: What about the TGI (HOP-62 NSCLC) of the same molecule?
Answer: 24.1 µM

Question: And the TGI (SN12C renal)?
Answer: 6.43 µM

Question: What about the TGI (ACHN renal) of the same molecule?
Answer: 15.7 µM

Question: What about the TGI (HCT-15 colon) of the same molecule?
Answer: 25.8 µM

Question: What about the TGI (M14 melanoma) of the same molecule?
Answer: 5.48 µM

Question: And the TGI (SF-268 CNS)?
Answer: > 100 µM

Question: What about the TGI (IGROV1 ovarian) of the same molecule?
Answer: 37.8 µM

Question: What about the TGI (KM12 colon) of the same molecule?
Answer: 44.7 µM

Question: What about the TGI (NCI-H460 lung) of the same molecule?
Answer: 22.1 µM

Question: And the TGI (UACC-62 melanoma)?
Answer: 42.6 µM

Question: What about the TGI (A549 NSCLC) of the same molecule?
Answer: > 76.1 µM

Question: What about the TGI (TK-10 renal) of the same molecule?
Answer: 87.4 µM

Question: And the TGI (NCI-H522 lung)?
Answer: 18.9 µM

Question: What about the TGI (MDA-MB-435) of the same molecule?
Answer: > 36.8 µM

Question: And the TGI (HCC-2998 colon)?
Answer: > 58.3 µM

Question: And the TGI (SK-MEL-28 melanoma)?
Answer: > 31.8 µM

Question: What about the TGI (SK-MEL-5 melanoma) of the same molecule?
Answer: 7.61 µM

Question: What about the TGI (MOLT-4 leukemia) of the same molecule?
Answer: 6.68 µM

Question: And the TGI (SK-OV-3 ovarian)?
Answer: 7.03 µM

Question: And the TGI (SW-620 colon)?
Answer: 70.7 µM

Question: And the TGI (LOX IMVI melanoma)?
Answer: 6.92 µM

Question: What about the TGI (HCT-116 colon) of the same molecule?
Answer: 25.2 µM

Question: And the TGI (SF-295 CNS)?
Answer: 5.88 µM

Question: And the TGI (OVCAR-3 ovarian)?
Answer: 41.6 µM

Question: What about the TGI (UO-31 renal) of the same molecule?
Answer: 9.24 µM

Question: And the TGI (MDA-MB-231 breast)?
Answer: 19.2 µM

Question: And the TGI (786-0 renal)?
Answer: 15.9 µM

Question: And the TGI (MCF7 breast)?
Answer: 71.9 µM

Question: What about the TGI (SR leukemia) of the same molecule?
Answer: 23.1 µM

Question: And the TGI (CCRF-CEM leukemia)?
Answer: 7.41 µM

Question: What about the TGI (MALME-3M melanoma) of the same molecule?
Answer: 4.51 µM

Question: And the TGI (OVCAR-4 ovarian)?
Answer: 65.5 µM

Question: And the TGI (SF-539 CNS)?
Answer: 5.06 µM

Question: What about the TGI (HL-60(TB) leukemia) of the same molecule?
Answer: 30.6 µM

Question: And the TGI (NCI-H226 lung)?
Answer: 5.56 µM

Question: What about the TGI (NCI/ADR-RES ovarian) of the same molecule?
Answer: 23 µM

Question: And the TGI (CAKI-1 renal)?
Answer: > 47 µM

Question: And the TGI (COLO 205 colon)?
Answer: 13.8 µM

Question: What about the TGI (A498 renal) of the same molecule?
Answer: 3.64 µM

Question: And the TGI (OVCAR-5 ovarian)?
Answer: 13.2 µM

Question: What about the TGI (DU-145 prostate) of the same molecule?
Answer: > 100 µM

Question: What about the TGI (SNB-19 CNS) of the same molecule?
Answer: > 42.9 µM

Question: Which results are given for `CCC(C)C(NC(=O)C(Cc1cccs1)NC(=O)C(CC(C)C)NC(=O)C(CC(C)C)NC(=O)C(CCCCN)NC(=O)C(CCCN=C(N)N)NC(=O)c1ccc(OC)cc1)C(=O)NC(CC(C)C)C(N)=O` (stereo unspecified) ({Benzoyl(4-OMe)}-RKLL[2Thi]IL-NH2; configuration not given here)?
Answer: TGI (NCI-H23 lung): > 100 µM; TGI (UACC-257 melanoma): > 100 µM; TGI (BT-549 breast): > 100 µM; TGI (NCI-H226 lung): > 100 µM
